# Measured values published in patent publication US20240199590A1, “SOLID FORMS OF A SGC ACTIVATOR” (Boehringer Ingelheim International GmbH, priority 2022, published 2024).
# Columns and labels:
# Format in all cases: physicochemical
# [1] = Solid form stability (tendency to convert to a different solid form, high RH)
# Method: (§1) Water sorption isotherms are determined using a dynamic vapor sorption system (Advantage 1, DVS, London, UKDVS Intrinsic Plus, Surface Measurement Systems, Allentown, PA).
# (§2) Approximately 5-10 mg of solid is weighed into a tared aluminum pan. The samples are subjected to 0 to 90% RH stepwise with a step size of […] at 25° C. Equilibration criteria are dm/dt of 0.002% over 5 minutes or 360 minutes at a specified % RH. Each sample is equilibrated at each RH step for at least 60 min, and equilibrium is assumed if weight increase is less than 0.1% within one minute, and the maximum duration on each RH is 6 hours. Therefore, each sample is held at a given RH for 1 to 6 hours depending on how fast the equilibrium is reached
# The amorphous of Compound 1 (10 mg) is added to a pan for Dynamic Vapor Sorption analysis. The solid is exposed stepwise from 40 to 95 to 0 to 95 to 0% RH at 25° C. Form III is isolated after completing the stepwise exposures.
# [2] = Storage stability of samples of Form I at controlled temperature and relative humidity
# Method: Samples of Form I were maintained for at least 9 months at 25°, and 60% and at least 6 months at 40° and 75% relative humidity.
# [3] = Hygroscopicity (water sorption, dynamic vapor sorption); conditions: compared to the anhydrate (Form I) and monohydrate forms (Form III, Form V)
# Method: as §1, §2
# [4] = at least 6 months at 40° and 75% relative humidity
# [5] = at least 9 months at 25°, and 60%
stability as compared to the amorphous form of Compound 1 ([1]; compared to the amorphous form),"change in particle sized distribution on storage [2, 4]","changes in Raman spectra on storage [2, 4]","increase in impurity levels on storage [2, 4]","increase in water content on storage [2, 4]","change in particle sized distribution on storage [2, 5]","changes in Raman spectra on storage [2, 5]","increase in impurity levels on storage [2, 5]","increase in water content on storage [2, 5]","stability of the solid form under high RH ([1]; high RH, converting to Form III)",hygroscopicity [3],Structure (SMILES)
improved stability,no change in particle sized distribution,no,no increase in impurity levels,no increase in water content,no change in particle sized distribution,no,no increase in impurity levels,no increase in water content,–,–,CCOc1c(C(=O)O)cnn1-c1cccc(-c2cccc(C)c2OCc2ccc3c(c2C)CCN(C2CCOCC2)C3)n1 [Form I]
–,–,–,–,–,–,–,–,–,not stable,higher hygroscopicity,CCOc1c(C(=O)O)cnn1-c1cccc(-c2cccc(C)c2OCc2ccc3c(c2C)CCN(C2CCOCC2)C3)n1 [amorphous form of Compound 1]
